# Read-outs that look alike come from different tables or passages of the source.
# B1: G-CSF (protein, UniProt P09919 31-207, looked up)
# Granulocyte …: TPLGPASSLPQSFLLKCLEQVRKIQGDGAALQEKLVSECATYKLCHPEELVLLGHSLGIPWAPLSSCPSQALQLAGCLSQLHSGLFLYQGLLQALEGISPELGPTLDTLQLDVADFATTIWQQMEELGMAPALQPTQGAMPAFASAFQRRAGGVLVASHLQSFLEVSYRVLRHLAQP
# Key:
# H3N2 HongKong = assay: In vitro antiviral effect, MTT cell viability in infected MDCK cells; type: cell-based, influenza A virus; conditions: 0.001 pfu/cell, 72 hours, hydroxyurea up to 1,561 μg/ml
# H1N1 PR8 = assay: as above; type: cell-based, influenza A virus; conditions: 0.001 pfu/cell, 72 hours, hydroxyurea up to 1,561 μg/ml
# Lee = assay: as above; type: cell-based, influenza B virus; conditions: 0.001 pfu/cell, 72 hours, hydroxyurea up to 1,561 μg/ml
# [1] = test system: mice infected with H1N1 influenza A (PR8 strain) virus; type: in vivo, mice (BALB/c)
# [2] = test system: mouse model with sepsis induced by lipopolysaccharide (LPS, from Escherichia coli O55: B5); assay: Bacterial LPS-induced sepsis model, survival (Experimental Example 1); type: in vivo, mice; conditions: LPS 10 mg/kg i.p., n=7
# Method: To identify whether treatment with hydroxyurea could increase survival through an immune response in a mouse model with sepsis induced by lipopolysaccharide (LPS, from Escherichia coli O55: B5L2880, Sigma), an animal experiment was performed.
# Each group consisted of 7 mice, and intraperitoneal administration of LPS was performed at 10 mg/kg on day 0. Two groups excluding a control group were subjected to intraperitoneal administration of hydroxyurea at 30 mg/kg once a day or twice a day for 5 days per one week starting from the day before the treatment with LPS (FIG. 1).
# [3] = test system: mice given wild-type WR strain of vaccinia virus; assay: Histological analysis (H&E) of liver and lung tissues after wild-type WR vaccinia virus (Experimental Example 2.2); type: in vivo; conditions: wild-type WR 1×10^7 pfu intranasal, HU 50 mg/kg, G-CSF 25 μg/kg
# [4] = test system: mice infected with H1N1 influenza A virus (maPR8); assay: Influenza virus-induced sepsis model (II), body weight and survival (Experimental Example 6); type: in vivo, BALB/c mice
# [5] = test system: monkeys with systemic inflammatory syndrome induced by vaccinia virus VV^tk−; type: in vivo, cynomolgus monkeys
# Method: Male cynomolgus monkeys (n=3) aged 45 to 55 months were subjected to systemic administration of only VV^tk− (1×10^8 pfu), which induces a systemic inflammatory response, or both VV^tk− and hydroxyurea (VV^tk−: 1×10^8 pfu, HU: 80 mg/kg/day and 30 mg/kg/day). Then, toxicity was evaluated by measuring levels of systemic inflammation and pustules, body temperature, body weight, and the like.
# [6] = test system: mice with sepsis induced by the Western Reserve strain of vaccinia virus; conditions: mouse, in vivo
# mice given LPS = assay: LPS-induced sepsis model (II), survival and ANC (Experimental Example 7); type: in vivo, BALB/c mice; conditions: for survival: until day 12; for ANC: blood on day 12
# Method: Twenty-one BALB/c mice (about 8 weeks old) were divided into 3 groups (LPS, LPS+HU_30, LPS+HU_60; n=7/group). All mice received intraperitoneal administration of LPS at 10 mg/kg on day 0. The mice of the group (LPS+HU_30) received hydroxyurea (30 mg/kg/day, from day -1 to day 3) once a day, and the mice of the group (LPS+HU_60) received hydroxyurea (60 mg/kg/day, from day -1 to day 3) twice a day. Survival of the mice of each group was measured until day 12 at 3-day intervals, and blood samples were collected on day 12 to check the absolute neutrophil count in blood.
# MDCK cells = assay: Cytotoxicity (CC50) by MTT assay; conditions: 72 hours
# [7] = test system: mice infected with the WR strain of vaccinia virus; type: in vivo, BALB/c mice; conditions: for survival: WR low (1×10^5 pfu) or high (1×10^7 pfu) dose, HU 50 mg/kg/day i.p. days 0 to 14, G-CSF 25 μg/kg/day i.p. days 0 to 5; for lung tissue histology: compared with other groups
# [8] = test system: monkeys with systemic inflammatory syndrome induced by the Western Reserve strain of vaccinia virus
# [9] = test system: mice infected with the WR strain of vaccinia virus; type: in vivo; conditions: WR 1×10^5 pfu; HU 80 mg/kg/day on days 2 to 14, started 2 days after infection
# [10] = co-administration vs virus only
# [11] = WR 1×10^8 pfu + HU, vs virus only
molecule,measurement,setting,value
"NC12CC3CC(CC(C3)C1)C2 [AMT, amantadine]",antiviral effect,H3N2 HongKong,next clear effect
same,antiviral effect,H1N1 PR8,next clear effect
same,antiviral effect,Lee,next clear effect
"CCOC(=O)C1=C[C@@H](OC(CC)CC)[C@H](NC(C)=O)[C@@H](N)C1 [Tamiflu, oseltamivir]",survival,"[1]; mouse, in vivo",survived regardless of the concentration
NC(=O)NO [hydroxyurea],survival until day 12,[2]; hydroxyurea 30 mg/kg i.p. once a day,17%
same,survival until day 12,[2]; hydroxyurea 30 mg/kg i.p. twice a day,43%
same,severity in leakage and exudate levels in the alveoli and ischemic change level in the liver tissue (order of groups),[3],"in the order of the group having received hydroxyurea, the group having received G-CSF, and the control group"
same,body weight / condition course,"[1]; mouse, in vivo",returned to a healthy condition on day 18
same,surviving mice,[1]; n=7,5 mice
same,survival,"[4]; hydroxyurea 50 mg/kg q.d. days -2 to 14, until day 20, n=7",70%
same,body weight,"[4]; hydroxyurea 50 mg/kg q.d., loss until day 10",recovered to the initial weight on day 20
same,antiviral effect,H3N2 HongKong,did not show any antiviral effect
same,antiviral effect,H1N1 PR8,did not show any antiviral effect
same,systemic inflammation and skin rash lesions (pustules),"[5]; VV^tk− 1×10^8 pfu + HU 80 mg/kg/day and 30 mg/kg/day, vs virus only",remarkably weakened systemic inflammation and inhibition of skin rash lesions such as pustules
same,absolute neutrophil count,[5]; co-administration,decreased on average and remained stable
same,number of virus particles,[5]; co-administration,decreased on average and remained stable
same,body temperature,[5]; [10],did not show any significant increase in body temperature
same,body weight loss,[5]; [10],no difference in body weight loss
same,number of virus particles in blood,[6],highest number of virus particles
same,survival until day 21,[6],40%
same,survival,"mice given LPS; LPS+HU_30: 30 mg/kg/day, day -1 to day 3, once a day",remarkably increased survival
same,ANC,mice given LPS; LPS+HU_30,decreased ANC
same,survival,"mice given LPS; LPS+HU_60: 60 mg/kg/day, day -1 to day 3, twice a day",remarkably increased survival
same,ANC,mice given LPS; LPS+HU_60,decreased ANC
same,CC50,MDCK cells,"1,561 μg/ml"
same,absolute neutrophil count (ANC),"[7]; WR high dose (1×10^7 pfu), HU 50 mg/kg/day",decreased absolute neutrophil count
same,survival,[7],increased survival
same,lung tissue histology,[7],improved aspect
same,infection by immunofluorescence staining for protein A56 (bronchi),"[7]; lung tissue, between saline, G-CSF and HU groups",no significant difference between the three groups
same,systemic inflammation and skin rash lesions (pustules),"[8]; WR 1×10^8 pfu + HU 80 mg/kg/day and 30 mg/kg/day, vs virus only",remarkably weakened systemic inflammation and inhibition of skin rash lesions such as pustules
same,body temperature,[8]; [11],did not show any significant increase in body temperature
same,body weight loss,[8]; [11],no difference in body weight loss
same,absolute lymphocyte count (ALC),"[8]; co-administration group, blood",decreased on average and remained stable
same,absolute neutrophil count (ANC),"[8]; co-administration group, blood",decreased on average and remained stable
same,white blood cell count (WBC),"[8]; co-administration group, blood",decreased on average and remained stable
same,number of virus particles in blood,"[8]; day 8 after virus administration, co-administration vs virus only",no significant difference
same,antiviral effect,Lee,did not show any antiviral effect
same,"protective effect (survival, body weight)",[9],protective effect
NC(=O)c1ncn([C@@H]2O[C@H](CO)[C@@H](O)[C@H]2O)n1 [ribavirin],antiviral effect,H3N2 HongKong,next clear effect
same,antiviral effect,H1N1 PR8,next clear effect
same,antiviral effect,Lee,next clear effect
B1,severity in leakage and exudate levels in the alveoli and ischemic change level in the liver tissue (order of groups),[3],"in the order of the group having received hydroxyurea, the group having received G-CSF, and the control group"
same,time within which all mice died after administration of the WR strain,[6],≤ 14 days
same,survival,[7],decreased survival
same,absolute neutrophil count (ANC),"[7]; WR low or high dose, G-CSF 25 μg/kg/day",remarkably increased absolute neutrophil count
same,lung tissue histology,[7],lung edema was observed

# From US20230096789A1, “PHARMACEUTICAL COMPOSITION FOR INHIBITING INFLAMMATORY RESPONSE COMPRISING HYDROXYUREA” (priority 2020, published 2023)
